Results taken from patent US10828337B2, “Materials and methods for controlling vasculogenesis from endothelial colony forming cells” (Indiana University Research and Technology Corporation, priority 2011, dated 2020).

Test system: ECFC vacuole formation
Assay: Perturbation of ECFC vacuole formation by inhibitors
Type: cell-based, Human
Details: for way in which total vacuole area was decreased: Casin 2.5 μM (Cdc42), NSC23766 25 μM (Rac1), 3.0 mg/ml oligomer rich matrices (FIGS. 11 G, H); for effect on ECFC vacuole formation: MAB17781 1 μg/ml, Casin 2.5 μM, NSC23766 25 μM, TIMP-3 5 μg/ml
Procedure: For analysis of in vitro vacuole formation, cultures were fixed with 4% paraformaldehyde for 20 minutes at 48 hours. Scaffolds were stained with 0.1% toluidine blue 0 in 30% methanol for 20 minutes and then washed with PBS.
A Leica DM IRE2 microscope (Leica Microsystems, Bannockburn, Ill.) with attached Retiga 4000R digital camera (QImaging, Surrey, BC, Canada) was used to image the entire area of each matrix using a 10× objective and the middle 9 fields of view were used for analysis. Lumens were quantified using a standard image analysis system Metamorph (Molecular Devices, Sunnyvale, Calif.). […] Lumens were defined as areas completely surround by a toluidine blue labeled endothelial cell membrane.
Chemical inhibitors TIMP-3 (5 μg/ml, R&D Systems, Minneapolis, Minn.), Casin (2.5 μM), NSC23766 (25 μM), or MAB17781 (1 μg/ml, R&D Systems, Minneapolis, Minn.) were added into the media during ECFC culture in 3.0 mg/ml matrices polymerized with the oligomer rich fraction. Treatments were conducted in duplicate and at least three independent experiments were conducted.
To first determine if this signaling axis was involved in ECFC vacuole formation chemical inhibitors to β1 integrin, Cdc42, Rac1, and MT1-MMP were added to cultures to test if they would alter cell behavior.

[1] = 3.0 mg/ml oligomer rich matrices

Molecule | way in which total vacuole area was decreased | effect on ECFC vacuole formation [1] | vacuole density (inhibitor in media (MAB17781 1 μg/ml, TIMP-3 5 μg/ml), 3.0 mg/ml oligomer rich matrices, control 11.24±0.65) [vacuoles/mm^2] | vacuole area (inhibitor in media (MAB17781 1 μg/ml, TIMP-3 5 μg/ml), 3.0 mg/ml oligomer rich matrices, control 536.09±138.24) [μm^2] | total vacuole area (inhibitor in media (MAB17781 1 μg/ml, TIMP-3 5 μg/ml), 3.0 mg/ml oligomer rich matrices, control 19103.60±5447.67) [μm^2]
OCCNC1CCCc2c1[nH]c1ccc(-c3ccccc3)cc21 (centres unmarked) [Casin] | decreased total vacuole area by decreasing vacuole density | inhibited ECFC vacuole formation |  |  | 
CCN(CC)CCCC(C)Nc1nc(C)cc(Nc2ccc3nc(C)cc(N)c3c2)n1 (centres unmarked) [NSC23766] | decreased total vacuole area by decreasing average vacuole area | inhibited ECFC vacuole formation |  |  | 
TIMP-3: inhibitor (R&D Systems) added to the cultures to inhibit MT1-MMP activity (protein, UniProt P35625 24-211, looked up) Metalloproteinase inhibitor 3: CTCSPSHPQDAFCNSDIVIRAKVVGKKLVKEGPFGTLVYTIKQMKMYRGFTKMPHVQYIHTEASESLCGLKLEVNKYQYLLTGRVYDGKMYTGLCNFVERWDQLTLSQRKGLNYRYHLGCNCKIKSCYYLPCFVTSKNECLWTDMLSNFGYPGYQSKHYACIRQKGGYCSWYRGWAPPDKSIINATDP |  | inhibited ECFC vacuole formation | 3.31±1.38 | 146.04±45.86 | 2288.76±1685.92
